Measurements published in patent publication US20180193294A1, “Dehydroabietic acid (DHAA) derivatives for use as ion channel openers” (priority 2015, published 2018).
“Also recorded” adds a separate entry of the source.

Tests used:
Format in all cases: cell-based
[1] = target: WT Shaker K channel (Drosophila melanogaster, UniProt P08510, DEL6-46); assay: physchem; settings: 100 μM; for G(V) shift for WT: pH 7.4, Xenopus oocytes
Text: A Shaker K channel is a Kv channel from the fruit fly Drosophila melanogaster. It is homologous to the human Kv1-type ion channels.
(§1) All animal experiments were approved by the local Animal Care and Use Committee and followed international guidelines. A modified Shaker H4 channel^30, with removed N-type inactivation (ShH4IR)^31, here called the wild type (WT) channel, was expressed in oocytes. In addition, a modified 3R Shaker K channel where two introduced positive charged arginines (M356R and A359R) in addition to one native arginine (R362) makes the channel more sensitive to DHA^16, was expressed in oocytes and in a CHO—K1 stable cell line.
(§2) African clawed frogs (Xenopus laevis) were anesthetized with 1.4 g/L ethyl 3-aminobenzoate methanesulfonate salt (tricaine). After an incision through the abdomen a batch of oocytes were removed. Clusters of oocytes were separated by incubation for ˜1 h in a Ca-free O—R2 solution (in mM: 82.5 NaCl, 2 KCl, 5 HEPES, and 1 MgCl2; pH adjusted to 7.4 by NaOH) containing Liberase Blendzyme. The oocytes were then incubated at 8° C. in a modified Barth's solution (MBS; in mM: 88 NaCl, 1 KCl, 2.4 NaHCO3, 15 HEPES, 0.33 Ca(NO3)2, 0.41 CaCl2, and 0.82 MgSO4; pH adjusted to 7.6 by NaOH) supplemented with penicillin (25 U/ml), streptomycin (25 μg/ml), and sodium pyruvate (2.5 mM) 2-24 hours before injection. Fifty nl of cRNA (50 pg) were injected into each oocyte using a Nanoject injector (Drummond Scientific, Broomall, Pa.). Injected oocytes were kept at 8° C. in MBS until one day before electrophysiological recordings, when they were incubated at 16° C. All chemicals were supplied from Sigma-Aldrich (Stockholm, Sweden) if not stated otherwise.
(§3) All manual electrophysiological recordings were performed at room temperature (20-23° C.), using a GeneClamp 500B amplifier (for oocytes) or a Axopatch 200B amplifier (for manual patch clamp of CHO—K1 cells and DRG neurons) and a Digidata 1440A digitizer and pClamp 10 software (all from Molecular Devices, Inc., Sunnyvale, Calif., USA). Compounds were dissolved to 100 mM in 99.5% EtOH and stored at −20° C. Compounds were diluted in extracellular solution to the desired test concentration.
(§4) The oocyte was placed in a bath surrounded by 1K extracellular solution that contained (in mM): 88 NaCl, 1 KCl, 15 HEPES, 0.4 CaCl2, and 0.8 MgCl2, pH adjusted to 7.4 by NaOH (reaching a sodium concentration of ˜100 mM). Control solution was added to the bath with a gravity driven perfusion system. Compound solution was added to the bath manually with a syringe. Two glass microelectrodes were inserted into the oocyte using micromanipulators. […] All channels were closed when the potential was clamped to −80 mV and this voltage was set as the holding potential. Currents were evoked from the holding potential of −80 mV by 100-ms long, 5-mV steps ranging from −80 up to +50 mV (WT) and +70 mV (3R).
(§5) Conductance GK(V) was calculated as GK(V)=[…], (Eq. 1) where IK is the average current from the steady-state phase at the end of each 100-ms pulse, V is the membrane voltage, and Vrev is the reversal potential for K^+, (set to −80 mV for the oocytes, and calculated to be −89 mV for the CHO—K1 cells).
(§6) G(V)=A/(1+exp((V1/2−V)/s))^n (Eq. 2) where A is amplitude of the curve, V is the absolute membrane voltage, V1/2 is the midpoint, s is the slope and n is an exponent set to 4^17. The compound-induced G(V) shift was determined at the 10% level of the maximum conductance in control solution^17. The compound-induced G(V) shift in CHO—K1 was quantified by subtracting the control V1/2 from the compound V1/2 when n was set to 1.
(§7) Data for concentration and pH dependent G(V) shifts (ΔV) in oocytes were fit with a dose-response equation ΔV=ΔVmax/(1+c1/2/c), (Eq. 3) where Δvmax is the maximal shift, c1/2 is half maximal effective concentration/pKa value and c is the concentration.

[2] = target: 3R Shaker K channel (Drosophila melanogaster, UniProt P08510, A359R/M356R); assay: cell-based; settings: for G(V) shift: Table 1; for G(V) shift / compound-induced G(V) shift (mean±SEM): pH 7.4, Xenopus oocytes; for Effects on K channel Mean ± SEM: Table 2, K channel expressed in Xenopus oocytes; for ΔG(V) of representative G(V) curves (single examples): pH 7.4, same cells as representative traces; for relative current amplitude: representative traces at voltage giving 10% of maximum conductance in control
Sequence of 3R Shaker K channel (P08510 whole entry M356R/A359R): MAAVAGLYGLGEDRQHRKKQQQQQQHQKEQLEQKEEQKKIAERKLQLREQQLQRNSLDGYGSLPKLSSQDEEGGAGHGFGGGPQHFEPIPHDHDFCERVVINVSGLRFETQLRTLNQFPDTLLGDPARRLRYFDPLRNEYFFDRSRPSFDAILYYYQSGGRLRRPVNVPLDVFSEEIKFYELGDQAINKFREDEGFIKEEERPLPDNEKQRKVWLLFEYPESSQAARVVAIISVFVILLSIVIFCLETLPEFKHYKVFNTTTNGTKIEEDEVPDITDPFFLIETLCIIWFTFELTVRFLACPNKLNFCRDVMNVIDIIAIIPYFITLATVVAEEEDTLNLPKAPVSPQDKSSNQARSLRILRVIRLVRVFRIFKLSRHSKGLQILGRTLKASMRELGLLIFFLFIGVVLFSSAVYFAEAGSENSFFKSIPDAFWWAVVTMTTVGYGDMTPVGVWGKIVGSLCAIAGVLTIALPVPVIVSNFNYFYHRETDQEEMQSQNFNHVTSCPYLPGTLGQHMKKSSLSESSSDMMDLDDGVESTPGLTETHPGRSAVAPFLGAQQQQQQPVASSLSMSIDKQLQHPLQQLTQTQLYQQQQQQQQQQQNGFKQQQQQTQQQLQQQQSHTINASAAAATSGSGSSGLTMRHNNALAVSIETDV
Text: A 3R Shaker K channel is a modified Shaker K channel where residues 356 and 359 are mutated to arginines.
as §1, §2, §3, §4, §5, §6, §7

[3] = tested on: HL-1 cells; assay: Membrane potential and firing of spontaneously beating HL-1 cells, whole-cell current clamp; settings: 10 uM
Procedure: All conventional chemicals were purchased from Sigma-Aldrich (Stockholm, Sweden). The DHAA derivatives were diluted in ethanol in a 100 mM stock solution. The stock solutions were stored at −20 t for further use.
The cell culture was done according to a previous study (Claycomb et al., Proceedings of the National Academy of Sciences of the United States of America 1998; 95:2979-2984). In brief, cells were grown on gelating fibronectin coated T75 flasks. They were maintained in Claycomb Medium which was supplemented with 10% fetal bovine serum, 2 mM L-glutamine, 0.1 mM noradrenaline, and 100 U/ml, 100 μg/ml penicillin-streptomycin. Enzymatic dissociation with 0.05% trypsin-EDTA was done after full confluence. Isolated cells were plated on fibronectin-gelatin coated plastic coverslips and used for recording.
Whole-cell current-clamp recordings were done on confluent cells at 35±1° C., using an Axopatch 200B amplifier (Molecular Devices, Sunnyvale, Calif.). Patch pipettes were fabricated from borosilicate capillary glass on a vertical pipette puller and had resistances of 3-5 MO. Data were stored on a computer through Digidata 1440A interface (Molecular Devices), and was analyzed with pCLAMP software (version 10.1, Molecular Devices). The bath solution contained the following (in mM): 140 NaCl, 5.4 KCl, 1 MgCl2, 1.8 CaCl2, 10 HEPES, and 10 glucose (pH adjusted to 7.4 with NaOH). The micropipettes were filled with a solution containing (in mM): 130 K-gluconate, 9 KCl, 8 NaCl, 1 MgCl2, 10 EGTA, 10 HEPES, and 3 Na2ATP (pH adjusted to 7.3 with KOH).

Sequence of WT Shaker K channel (P08510 other isoform, or with tags, fused parts or gaps DEL6-46): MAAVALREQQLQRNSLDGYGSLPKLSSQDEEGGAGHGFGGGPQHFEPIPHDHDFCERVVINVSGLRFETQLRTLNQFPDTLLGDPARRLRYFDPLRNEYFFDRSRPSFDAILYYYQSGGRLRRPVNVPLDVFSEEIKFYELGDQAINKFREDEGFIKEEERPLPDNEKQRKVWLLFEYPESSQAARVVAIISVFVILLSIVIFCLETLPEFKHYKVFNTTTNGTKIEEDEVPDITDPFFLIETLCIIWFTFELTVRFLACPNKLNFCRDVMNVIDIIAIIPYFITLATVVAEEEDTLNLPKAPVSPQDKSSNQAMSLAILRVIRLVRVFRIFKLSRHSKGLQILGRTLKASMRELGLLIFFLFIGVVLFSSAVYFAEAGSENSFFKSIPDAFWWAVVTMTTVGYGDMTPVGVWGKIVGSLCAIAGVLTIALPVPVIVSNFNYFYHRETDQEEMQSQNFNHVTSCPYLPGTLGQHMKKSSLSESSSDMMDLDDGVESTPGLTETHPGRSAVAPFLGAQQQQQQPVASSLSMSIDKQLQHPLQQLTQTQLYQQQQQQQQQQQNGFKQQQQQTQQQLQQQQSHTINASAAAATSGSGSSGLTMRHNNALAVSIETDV

`CC(C)c1ccc2c(c1)CC[C@H]1[C@](C)(C(=O)O)CCC[C@]21C` [DHAA, dehydroabietic acid] gave a pKa ([1]; Drosophila melanogaster, from pH dependence of G(V) shift) of 7.2, a Kd [2] of 89 µM and a pKa ([2]; Drosophila melanogaster, from pH dependence of G(V) shift, 100 μM) of 7.3.
For `CC(C)c1ccc2c(c1Br)CCC1[C@](C)(C(=O)O)CCC[C@]21C` (stereo partly drawn) [Wu26, (1R,4aS)-8-bromo-7-isopropyl-1,4a-dimethyl-1,2,3,4,4a,9,10,10a-octahydrophenanthrene-1-carboxylic acid], the “Effects on HL-1 cells Mean (membrane potential)” value (“Effects on HL-1 cells Mean” for short) [3] was −4.7 mV, the “G(V) shift” value ([2]; 100 μM) was −21.8 mV and the “Effects on K channel Mean ± SEM” value [2] was −21.8 ± 0.8 mV.
`CC/C=C\C/C=C\C/C=C\C/C=C\C/C=C\C/C=C\CCC(=O)O` [DHA] was tested, and the “G(V) shift for WT” value [1] was −6.0 mV.
With `C[C@]1(C(=O)O)CCC[C@]2(C)c3cc(O)ccc3CC[C@@H]12` [PoCA, podocarpic acid, reference compound] the “G(V) shift for WT” value [1] was “not significantly different from the 3R Shaker K channel”, the “ΔG(V) of representative G(V) curves (single examples)” value (“ΔG(V) of representative G(V) curves” for short) ([2]; 100 μM) was “+0.1 mV” and the relative current amplitude ([2]; 100 μM, pH 7.4) was 1.0 times.
In the case of `C=CCO/N=C1\CC2[C@](C)(C(=O)O)CCC[C@]2(C)c2ccc(C(C)C)c(Cl)c21` (stereo partly drawn) [Wu19, (1R,4aS,E)-9-((allyloxy)imino)-8-chloro-7-isopropyl-1,4a-dimethyl-1,2,3,4,4a,9,10,10a-octahydrophenanthrene-1-carboxylic acid], the “G(V) shift” value ([2]; 100 μM) is reported as −16.1 mV.
`CC(C)c1cc2c(cc1I)C1(C)CCCC(C)(C(=O)O)C1CC2=NOCc1ccccc1` (centres unmarked) [Wu87] was tested, and the “G(V) shift” value ([2]; 100 μM) was −6.0 mV.
In the case of `CC(C)c1c(Cl)cc2c(c1Cl)C(=NOCc1ccccc1)CC1C(C)(C(=O)O)CCCC21C` (centres unmarked) [Wu43], the “G(V) shift” value ([2]; 100 μM) is reported as −4.2 mV.
For `CON=C1CC2C(C)(C(=O)O)CCCC2(C)c2c(Cl)c(Cl)c(C(C)C)c(Cl)c21` (centres unmarked) [Wu47], the “G(V) shift” value ([2]; 100 μM) was −13.4 mV.
With `CC(C)c1cc2c(cc1C1CC1)[C@@]1(C)CCC[C@@](C)(C(=O)O)C1CC2` (some centres unmarked) [Wu81] the “G(V) shift” value ([2]; 100 μM) was −8.2 mV.
For `CO/N=C1\CC2[C@](C)(C(=O)O)CCC[C@]2(C)c2cc(Cl)c(C(C)C)cc21` (stereo partly drawn) [Wu69, (1R,4aS,E)-6-chloro-7-isopropyl-9-methoxyimino-1,4a-dimethyl-1,2,3,4,4a,9,10,10a-octahydrophenanthrene-1-carboxylic acid], the “Effects on HL-1 cells Mean” value [3] was −9.3 mV, the “effect on firing frequency of HL-1 cells” value [3] was “reduced the frequency; also recorded: frequency is reduced” and the “effect on membrane potential of HL-1 cells” value [3] was “hyperpolarized the membrane potential; also recorded: interspike membrane potential is made more negative; also recorded: most potent substance on the HL-1 cells”. For the same compound, the “compound-induced G(V) shift (mean±SEM)” value ([2]; 100 μM) was “one of the most potent substances on the Shaker K 3R channel”, the “G(V) shift” value ([2]; 100 μM) was −28.1 mV and the “Effects on K channel Mean ± SEM” value [2] was −28.1 ± 1.7 mV.
In the case of `CC(C)c1cc(Cl)c2c(c1Cl)CC[C@H]1[C@](C)(C(=O)O)CCC[C@]21C` [Wu112], the “G(V) shift” value ([2]; 100 μM) is reported as −14.7 mV.
For `CC(C)c1ccc2c(c1Cl)C(=NO)CC1C(C)(C(=O)O)CCCC21C` (centres unmarked) [Wu17], the “G(V) shift” value ([2]; 100 μM) was −5.3 mV.
In the case of `C=CCO/N=C1\C[C@H]2[C@](C)(C(=O)O)CCC[C@]2(C)c2ccc(C(C)C)c(I)c21` [Wu91, (1R,4aS,10aR)-9-((allyloxy)imino)-8-iodo-7-isopropyl-1,4a-dimethyl-1,2,3,4,4a,9,10,10a-octahydrophenanthrene-1-carboxylic acid], the “G(V) shift” value ([2]; 100 μM) is reported as −12.5 mV.
For `CC(C)c1ccc2c(c1F)C(=O)C[C@H]1[C@](C)(C(=O)O)CCC[C@]21C` [Wu113], the “G(V) shift” value ([2]; 100 μM) was −3.6 mV.
With `CC(C)c1ccc2c(c1Cl)C(=O)CC1[C@](C)(C(=O)O)CCC[C@]21C` (some centres unmarked) [Wu15] the “G(V) shift” value ([2]; 100 μM) was −4.9 mV.
With `C=C[C@@]1(C)CC[C@H]2C(=CC[C@@H]3[C@]2(C)CCC[C@@]3(C)C(=O)O)C1` [Iso-PiMA, isopimaric acid, reference compound] the “G(V) shift for WT” value [1] was “much smaller effects on WT compared to the 3R Shaker K channel”, the “compound-induced G(V) shift (mean±SEM)” value ([2]; 100 μM) was −15.9±1.8 mV and the “ΔG(V) of representative G(V) curves” value ([2]; 100 μM) was −20.0 mV. It also gave a relative current amplitude ([2]; 100 μM, pH 7.4) of 5.7 times.
With `C=CCO/N=C1\CC2[C@](C)(C(=O)O)CCC[C@]2(C)c2ccc(C(C)C)cc21` (some centres unmarked) [Compound K8] the “Effects on HL-1 cells Mean” value [3] was −3.6 mV, the “compound-induced G(V) shift (mean±SEM)” value ([2]; 100 μM) was −17.8±1.9 mV and the “effect on G(V) shift / current compared with DHAA” value ([2]; C7-modified DHAA, 100 μM, pH 7.4) was “significantly increased the effect”. The “G(V) shift” value ([2]; 100 μM) was −17.8 mV, the “Effects on K channel Mean ± SEM” value [2] was −17.8 ± 1.9 mV and the relative current amplitude ([2]; 100 μM, pH 7.4) was 7.6 times.
For `CC(C)c1ccc2c(c1I)C(=O)C[C@H]1[C@](C)(C(=O)O)CCC[C@]21C` [Wu68, (1R,4aS,10aR)-8-iodo-7-isopropyl-1,4a-dimethyl-9-oxo-1,2,3,4,4a,9,10,10a-octahydrophenanthrene-1-carboxylic acid], the “G(V) shift” value ([2]; 100 μM) was −26.0 mV.
`CC(C)c1c(Cl)cc2c(c1Cl)CC[C@H]1[C@](C)(C(=O)O)CCC[C@]21C` [Wu27] was tested, and the “compound-induced G(V) shift (mean±SEM)” value ([2]; 100 μM) was −5.9±0.4 mV, the “ΔG(V) of representative G(V) curves” value ([2]; 100 μM) was −6.1 mV and the “G(V) shift” value ([2]; 100 μM) was −5.9 mV.
With `CC(C)c1cc2c(cc1F)[C@@]1(C)CCC[C@@](C)(C(=O)O)[C@@H]1CC2=O` [Wu116] the “G(V) shift” value ([2]; 100 μM) was −4.4 mV.
`CC=Cc1c(C(C)C)ccc2c1CCC1[C@](C)(C(=O)O)CCC[C@]21C` (some centres unmarked) [Wu85] was tested, and the “G(V) shift” value ([2]; 100 μM) was −1.9 mV.
In the case of `CC(C)c1ccc2c(c1Br)C(=O)CC1[C@](C)(C(=O)O)CCC[C@]21C` (some centres unmarked) [Wu73], the “G(V) shift” value ([2]; 100 μM) is reported as −5.8 mV.
With `C=C[C@@]1(C)C=C2CC[C@@H]3[C@](C)(CCC[C@@]3(C)C(=O)O)[C@H]2CC1` [PiMA, pimaric acid, reference compound] the “G(V) shift for WT” value [1] was “much smaller effects on WT compared to the 3R Shaker K channel”, the “compound-induced G(V) shift (mean±SEM)” value ([2]; 100 μM) was −10.4±0.8 mV and the “ΔG(V) of representative G(V) curves” value ([2]; 100 μM) was −10.8 mV. It also gave a relative current amplitude ([2]; 100 μM, pH 7.4) of 2.4 times.
